Assay results reported in ChEMBL document CHEMBL1121986, “Spiro oxazolidinedione aldose reductase inhibitors” (J Med Chem, 1982).
pIC50: −log10 of the molar value. The source made the active and inactive calls. The calls are words filed in the database; no cut-off is given here.

How the values were obtained:
[1] = biological target: T1, Aldo-keto reductase family 1 member B1 (Bos taurus, UniProt P16116); assay: Inhibitory concentration was determined against partially purified calf lens aldose reductase using glyceraldehyde as a substrate
Rattus norvegicus [2] = assay: Dose required for reduction of sorbitol accumulation in the sciatic nerve in streptozotocin-diabetic rats in vivo; type: functional
[3] = biological target: T1, Aldo-keto reductase family 1 member B1; assay: Inhibitory concentration was determined against partially purified calf lens aldose reductase using glyceraldehyde as a substrate; 10e-6/10e-7
[4] = biological target: T1, Aldo-keto reductase family 1 member B1; assay: Inhibitory concentration was determined against partially purified calf lens aldose reductase using glyceraldehyde as a substrate; 10e-4/10e-5
[5] = biological target: T1, Aldo-keto reductase family 1 member B1; assay: Inhibitory concentration was determined against partially purified calf lens aldose reductase using glyceraldehyde as a substrate; 10e-7/10e-8
Rattus norvegicus [6] = assay: Dose required for reduction of sorbitol accumulation in the sciatic nerve in streptozotocin-diabetic rats in vivo; Inactive; type: functional, organism-based
[7] = Rattus norvegicus, Sciatic nerve, read-out: ED50

Row | SMILES | pIC50 [1] | ED50 (Rattus norvegicus [2]; [7]) [mg/kg] | further results
1 | O=C1NC(=O)C2(CCOc3ccc(Br)cc32)O1 (stereo not given) | 6.00 | > 1.5 | 
2 | Cc1cc(Cl)cc2c1OCCC21OC(=O)NC1=O (stereo not given) |  | > 1.5 | pIC50 [3]: 5.00
3 | O=C1NC(=O)C2(CCSc3ccccc32)O1 (stereo not given) | 5.00 | 25 | 
4 | O=C1NC(=O)C2(CCOc3ccc(F)cc32)O1 (stereo not given) |  | > 1.5 | pIC50 [3]: 5.00
5 | O=C1NC(=O)C2(CCOc3c(Cl)cc(Cl)cc32)O1 (stereo in doubt; 23) |  |  | ED50 (Rattus norvegicus [2]): 1.5 mg/kg
6 | O=C1NC(=O)C2(CCOc3ccc(Cl)cc32)O1 (stereo not given) |  | > 1.5 | pIC50 [3]: 5.00
7 | O=C1N=C(O)OC12CCOc1ccc(Cl)cc12 (single isomer, unassigned; (+)) |  |  | pIC50 [4]: 3.00
8 | O=C1NC(=O)C2(CCOc3c(Cl)cc(Cl)cc32)O1 (stereo in doubt; 14) |  | > 1.5 | pIC50 [5]: 6.00
9 | O=C1NC(=O)C2(CCCc3ccccc32)O1 (stereo not given) | 4.00 |  | ED50 (Rattus norvegicus [6]): inactive
10 | O=C1NC(=O)C2(CCSc3ccc(Cl)cc32)O1 (stereo not given) |  | > 1.5 | pIC50 [3]: 5.00
11 | O=C1N=C(O)OC12CCOc1c(Cl)cc(Cl)cc12 (single isomer, unassigned; (+)) | 4.00 |  | 
12 | O=C1NC(=O)C2(CCOc3ccccc32)O1 (stereo not given) | 4.00 |  | 
13 | O=C1NC(=O)C2(CCSc3ccc(F)cc32)O1 (stereo not given) | 5.00 | 25 | 
14 | O=C1N=C(O)OC12CCOc1ccc(Cl)cc12 (single isomer, unassigned; (-)) | 6.00 |  | 
15 | O=C1NC(=O)C2(CCc3ccccc32)O1 (stereo not given) | 4.00 | > 25 | 
